Assay results taken from US10053455B2, “Diazaspiroalkaneone-substituted oxazole derivatives as spleen tyrosine kinase inhibitors” (AB SCIENCE, priority 2014, dated 2018).
pIC50: −log10 of the molar value.

Columns and labels:
[1] = WST-1 cell survival/proliferation assay on rat cardiomyocytes; format: cell-based; details: Rat Cardiac Myocyte
Experimental: WST-1 cell survival/proliferation assay (Roche Diagnostic ref No 1644807) was performed on both primary human adult cardiomyocytes and rat neonatal cardiac myocytes.
Human cardiomyocytes were isolated from normal human ventricle tissue of the adult heart and were able to proliferate for a number of passage. Neonatal ventricular Clonetics® Rat Cardiac Myocytes (P1-3) retained their contractile property and were electrophysiologically active in culture. 1.10^4 primary rat cells or 2-2.5 10^4 adult human cells were plated per well of a 96 wells plates. The cells were allowed to adhere to the plates for 5 days before drug treatment. Treatment was initiated by addition of a 2× drug solution of ½ serial dilutions ranging from 0 to 10 μM. Cells were grown for 48 h at 37° C. and then incubated with 10 μl/well of WST-1 reagent for 4 h at 37° C. The amount of formazan dye formed was quantified by its absorbance at 450 nm using a scanning multiwell spectrophotometer (MultiSkan MS, Thermo-LabSystems, France). A blank well without cells was used as a background control for the spectrophotometer and all assays were performed in triplicate.

[2] = tested on: rat neonatal cardiac myocytes; test: Intracellular ROS in rat cardiomyocytes (CM-H2DCFDA); format: cell-based; details: 10 μM, 8 hours
Experimental: 2×10^3 human cardiomyocytes (Promocell C-12810) or 4×10^4 rat neonatal cardiac myocytes (R-CM-561 Lonza) were seeded per well of a 96-well plate (black wall for fluorimetry usage (655090 Greiner Bio one)) 24 hours before drug treatment. Treatment was initiated by addition of a drug solution for a 10 μM final concentration. Doxorubicin was used at 5 μM as positive control for the induction of ROS. After 8 hours treatment with drugs, cells were loaded with 10 μM of CM-H2DCFDA (C6827 Invitrogen) for 1 hour, followed by 2 washes in PBS. CM-H2DCFDA is a membrane permeable reagent that can be enzymatically converted to dichlorodihydrofluorescein (DCF) in the presence of ROS. Fluorescent DCF was detected using a fluorescence spectrophotometer (BMG Labtech) with excitation of 485 nm and emission of 560 nm. The results were expressed as a relative percent of DCF-fluorescence in control cells.
Monitoring drug-induced increase in the production of reactive oxygen species (ROS) in cardiomyocyte may be important to predict the cardiotoxic side effects of a drug (Table 11). The production of ROS in human and rat cardiomyocytes was studied following 8 hours drug treatment at concentration of 10 μM. The results were expressed as a percent relative to the production of ROS induced by the cardiotoxic chemotherapeutic agent doxorubicin (100%).

[3] = tested on: Salmonella typhimurium strain TA98; test: AMES mutagenic assay, TA98 strain
Experimental: Mutagenic activity of test compounds and their metabolites (produced by rat liver S9 fraction) was evaluated in the Salmonella typhimurium strains TA100 and TA98 according to the Ames assay (Toxicology in vitro, (2001), 15: 105-114). […] The results are expressed as a mutagenicity ratio in comparison to solvent controls.
The results are expressed as a ratio of the number of colonies over the number of colonies in the negative control (DMSO).

BCR-ABL = BCR-ABL (Homo sapiens, UniProt P00519); test: Cell-based proliferation assay on BaF3 model, BCR-ABL
Sequence of BCR-ABL (P00519 whole entry, looked up, stated change not applied): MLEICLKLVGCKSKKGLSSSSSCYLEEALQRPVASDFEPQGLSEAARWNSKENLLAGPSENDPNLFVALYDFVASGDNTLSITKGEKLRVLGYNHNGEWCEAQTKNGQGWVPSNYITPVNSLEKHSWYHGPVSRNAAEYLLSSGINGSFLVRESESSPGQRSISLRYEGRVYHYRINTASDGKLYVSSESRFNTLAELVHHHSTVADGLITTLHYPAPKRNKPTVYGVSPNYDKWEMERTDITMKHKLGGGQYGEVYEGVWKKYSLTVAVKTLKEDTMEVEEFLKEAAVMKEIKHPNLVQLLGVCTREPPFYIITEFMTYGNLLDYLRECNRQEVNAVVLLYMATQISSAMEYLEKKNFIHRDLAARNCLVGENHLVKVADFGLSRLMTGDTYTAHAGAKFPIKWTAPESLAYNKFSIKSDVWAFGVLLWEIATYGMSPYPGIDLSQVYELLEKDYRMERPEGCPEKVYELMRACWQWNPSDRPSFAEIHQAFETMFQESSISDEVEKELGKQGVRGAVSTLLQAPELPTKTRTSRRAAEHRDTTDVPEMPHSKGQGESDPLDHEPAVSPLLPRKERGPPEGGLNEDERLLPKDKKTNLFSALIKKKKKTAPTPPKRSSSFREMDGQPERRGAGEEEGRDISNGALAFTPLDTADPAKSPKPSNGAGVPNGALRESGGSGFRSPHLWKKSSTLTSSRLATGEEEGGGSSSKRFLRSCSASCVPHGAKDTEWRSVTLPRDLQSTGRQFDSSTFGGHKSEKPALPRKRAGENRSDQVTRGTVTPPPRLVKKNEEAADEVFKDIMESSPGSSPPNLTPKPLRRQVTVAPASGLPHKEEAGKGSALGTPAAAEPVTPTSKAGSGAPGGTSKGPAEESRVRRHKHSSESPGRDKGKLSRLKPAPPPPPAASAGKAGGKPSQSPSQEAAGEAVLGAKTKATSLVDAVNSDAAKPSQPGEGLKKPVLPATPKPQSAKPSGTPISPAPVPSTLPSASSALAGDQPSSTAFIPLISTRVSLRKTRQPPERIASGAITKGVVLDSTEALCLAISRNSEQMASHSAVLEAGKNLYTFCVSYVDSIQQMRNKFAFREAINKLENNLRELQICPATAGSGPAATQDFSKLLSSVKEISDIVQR
Experimental: Cell-based proliferation and viability assay CellTiter-Bleue cell-based survival/proliferation assay (Promega G8080) was performed on BaF3 models. […] Cells were grown for 48-72 h at 37° C. and then incubated with 10 μl/well of Promega CellTiter-Bleue reagent for 4 h at 37° C. The amount of formazan dye formed was quantified by its absorbance at 450 nm using a scanning multiwell spectrophotometer (POLARstar Omega, BMG labtech, France). A blank well without cells was used as a background control for the spectrophotometer and all assays were performed in duplicates and the experiments were repeated at least twice.

VEGFR2 = VEGFR2 (Homo sapiens (Human), UniProt P35968); test: HTRF kinase assay, VEGFR2; format: biochemical; details: enzymatic determination
Sequence of VEGFR2 (P35968 20-1356, species assumed): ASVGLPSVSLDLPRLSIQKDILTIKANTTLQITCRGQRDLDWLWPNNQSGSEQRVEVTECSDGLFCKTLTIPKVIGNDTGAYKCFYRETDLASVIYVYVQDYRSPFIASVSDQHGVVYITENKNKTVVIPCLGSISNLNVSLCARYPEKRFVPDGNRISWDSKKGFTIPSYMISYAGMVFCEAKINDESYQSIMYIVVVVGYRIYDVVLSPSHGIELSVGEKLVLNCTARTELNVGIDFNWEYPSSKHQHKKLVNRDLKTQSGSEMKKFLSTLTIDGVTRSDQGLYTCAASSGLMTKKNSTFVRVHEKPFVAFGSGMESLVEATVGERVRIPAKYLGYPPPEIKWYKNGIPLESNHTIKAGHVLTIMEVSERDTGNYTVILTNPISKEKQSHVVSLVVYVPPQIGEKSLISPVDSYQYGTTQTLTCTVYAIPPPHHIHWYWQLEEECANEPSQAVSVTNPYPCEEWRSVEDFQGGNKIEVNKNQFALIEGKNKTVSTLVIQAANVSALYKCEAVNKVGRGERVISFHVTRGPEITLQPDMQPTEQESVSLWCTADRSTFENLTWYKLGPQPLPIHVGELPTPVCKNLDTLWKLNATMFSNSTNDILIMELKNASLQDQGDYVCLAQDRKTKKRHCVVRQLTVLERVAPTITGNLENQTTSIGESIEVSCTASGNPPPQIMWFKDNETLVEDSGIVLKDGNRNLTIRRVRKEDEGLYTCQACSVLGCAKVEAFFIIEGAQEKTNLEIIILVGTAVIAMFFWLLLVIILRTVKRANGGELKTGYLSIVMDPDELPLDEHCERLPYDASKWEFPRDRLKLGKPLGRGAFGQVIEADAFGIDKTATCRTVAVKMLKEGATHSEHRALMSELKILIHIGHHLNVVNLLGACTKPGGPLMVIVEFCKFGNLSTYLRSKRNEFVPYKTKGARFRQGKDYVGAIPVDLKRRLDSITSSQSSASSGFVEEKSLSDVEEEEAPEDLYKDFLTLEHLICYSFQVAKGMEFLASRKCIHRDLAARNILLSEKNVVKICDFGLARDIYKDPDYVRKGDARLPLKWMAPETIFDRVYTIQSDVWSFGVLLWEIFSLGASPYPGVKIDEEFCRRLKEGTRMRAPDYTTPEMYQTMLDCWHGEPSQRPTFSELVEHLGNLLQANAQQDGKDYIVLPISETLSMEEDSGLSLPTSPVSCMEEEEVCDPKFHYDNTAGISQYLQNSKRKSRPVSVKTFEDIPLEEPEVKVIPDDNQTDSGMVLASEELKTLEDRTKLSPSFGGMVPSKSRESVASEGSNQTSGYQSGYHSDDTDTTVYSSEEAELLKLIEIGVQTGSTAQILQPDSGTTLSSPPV
Experimental: Most of the kinases tested in this study were cloned, expressed and purified in the facilities of the inventors. They were expressed either as N-terminus hexahistidine-, hexahistidine-asparagine- or GST-tagged enzymes in a baculovirus or in a Colibacille expression system. Remaining enzymes (JAKs) were purchased from Millipore or Proqinase. For each enzyme, steady state kinetic parameters were determined and validated with known inhibitors.
The analysis of the effect of compounds on kinase activity was assessed with the HTRF® KinEASE assay (Cisbio International), an immuno-assay based on the quantification of the level of phosphorylation of a biotinylated peptide substrate using anti-phospho-specific antibody labeled with Europium (Eu^3+) cryptate. This assay comprises two steps: —an enzymatic step, during which the peptide substrate, the kinase, ATP, Mg^2+ and/or Mn^2+ are incubated with varying concentration of drug (from 0 to 10 μM); —a detection step, at the end of the reaction (stopped by addition of EDTA which chelates Mg^2+), the antibody anti-phospho peptide-Eu^3+ (emission 620 nm) and streptavidin XL-665 (emission 665 nm) are added to the reaction mix. […] Results are expressed in delta fluorescence (DF) unit defined as follow DF %=[(ratio−ratio blank)/(ratio blank)]*100, where ratio=(665 nm/620 nm)*10^4. […]

[4] = TA98, absence of S-9, 0.5 μg per well
[5] = TA98, absence of S-9, 1.4 μg per well
[6] = TA98, absence of S-9, 4.1 μg per well
[7] = TA98, absence of S-9, 12.3 μg per well
[8] = TA98, absence of S-9, 37 μg per well
[9] = TA98, absence of S-9, 111.1 μg per well
[10] = TA98, absence of S-9, 333.3 μg per well
[11] = TA98, absence of S-9, 1000 μg per well
[12] = TA98, presence of S-9, 0.5 μg per well
[13] = TA98, presence of S-9, 1.4 μg per well
[14] = TA98, presence of S-9, 4.1 μg per well
[15] = TA98, presence of S-9, 12.3 μg per well
[16] = TA98, presence of S-9, 37 μg per well
[17] = TA98, presence of S-9, 111.1 μg per well
[18] = TA98, presence of S-9, 333.3 μg per well
[19] = TA98, presence of S-9, 1000 μg per well

SMILES: Cc1ccnc(Nc2cccc(-c3cnc(N4CCNC(=O)C45CC5)o3)c2)n1 [Compound 001, 4-{5-[3-(4-Methyl-pyrimidin-2-ylamino)-phenyl]-oxazol-2-yl}-4,7-diaza-spiro[2.5]octan-8-one]
- IC50 at 48 h ([1]; neonatal ventricular rat cardiac myocytes (Clonetics, P1-3), 48 h, read-out: Drug-induced cytotoxicity IC50, Rat-CM): 10 µM
- viability change vs untreated control at 48 h, 1 µM ([1]; rat neonatal cardiac myocytes, 1 μM): -2%
- ROS production, activity relative to doxorubicine (100%), Rat-CM [2]: 0%
- Mean revertant colony counts [3, 4]: 7.3
- Ratio treated/solvent [3, 4]: 1.7
- Mean revertant colony counts [3, 5]: 4.3
- Ratio treated/solvent [3, 5]: 1.0
- Mean revertant colony counts [3, 6]: 6.3
- Ratio treated/solvent [3, 6]: 1.5
- Mean revertant colony counts [3, 7]: 5.3
- Ratio treated/solvent [3, 7]: 1.2
- Mean revertant colony counts [3, 8]: 8.3
- Ratio treated/solvent [3, 8]: 1.9
- Mean revertant colony counts [3, 9]: 6.3
- Ratio treated/solvent [3, 9]: 1.5
- Mean revertant colony counts [3, 10]: 4.3
- Ratio treated/solvent [3, 10]: 1.0
- Mean revertant colony counts [3, 11]: 3.7
- Ratio treated/solvent [3, 11]: 0.8
- Mean revertant colony counts [3, 12]: 10.3
- Ratio treated/solvent [3, 12]: 3.9
- Mean revertant colony counts [3, 13]: 7.3
- Ratio treated/solvent [3, 13]: 2.8
- Mean revertant colony counts [3, 14]: 9.3
- Ratio treated/solvent [3, 14]: 3.5
- Mean revertant colony counts [3, 15]: 6.7
- Ratio treated/solvent [3, 15]: 2.5
- Mean revertant colony counts [3, 16]: 5.7
- Ratio treated/solvent [3, 16]: 2.1
- Mean revertant colony counts [3, 17]: 7.3
- Ratio treated/solvent [3, 17]: 2.8
- Mean revertant colony counts [3, 18]: 6.3
- Ratio treated/solvent [3, 18]: 2.4
- Mean revertant colony counts [3, 19]: 5.0
- Ratio treated/solvent [3, 19]: 1.9
- mutagenic activity ([3]; TA98, with or without liver metabolic activation system (S9 mix)): did not show any mutagenic activity
- pIC50 (BCR-ABL): 5.00
- pIC50 (VEGFR2): 4.70
